Measurements published in patent US12156523B2 (priority 2017, dated 2024).

Key:
Assay type in all cases: in vivo
[1] = system: cucumber bacterial spot disease; assay: Activity against cucumber bacterial spot disease (Example 17); conditions: cucumber cv. Natsusuzumi; wettable powder diluted 6666-fold, 20 mL per pot absorbed in the soil; 28 days after settled planting
Experimental: Wettable powders of the example compound 1-134 were prepared in accordance with the below-mentioned Preparation Example 1. The wettable powders were diluted to 6666-fold with water, and then 20 mL of the diluted solution per pot was applied to cucumber (cultivar: Natsusuzumi) cultivated to the third leaf stage in pots by making the diluted solution to be absorbed in the soil, and then the cucumber was subjected to settled planting. 28 days after the settled planting, the number of lesions formed at the 11th true leaves to the 20th true leaves were counted. The control value was calculated from the obtained number of lesions in accordance with the below-mentioned mathematical formula. Control value=((the number of lesions at untreated plants −the number of lesions at treated plants)/the number of lesions at untreated plants)×100

Pyricularia oryzae [2] = assay: whole plant or invertebrate; conditions: soil, read-out: Control value (number of lesions at the second leaf)
Pyricularia oryzae [3] = assay: whole plant or invertebrate; conditions: foliar, read-out: Control value (number of lesions at the second leaf)
wheat brown rust = assay: Activity against wheat brown rust (Example 14); conditions: wettable powder (Preparation Example 1) diluted 1000-fold, sprayed twice at 1 L/m^2, examined approx. 4 weeks after second spraying
Experimental: Wettable powders of the example compound 1-135 were prepared in accordance with the below-mentioned Preparation Example 1, followed by diluting the wettable powders to 1000-fold with water to prepare spraying liquids. The prepared spraying liquid was sprayed onto wheat twice at the blooming stage and 10 days prior to the blooming stage at a liquid volume of 1 L/m^2. The lesions on the flag leaf were examined in accordance with the below-mentioned indexes approximately 4 weeks after the second spraying application. The severity was calculated based on the indexes, and the control value was calculated from the obtained severity in accordance with the below-mentioned mathematical formula.
0: No lesions were observed.
1: 1 to 3 lesions were observed.
2: 4 to 10 lesions were observed.
3: 11 to 20 lesions were observed.
4: 21 or more lesions were observed, and the area of lesions was less than half of the leaf surface.
5: 21 or more lesions were confirmed, and the area of lesions was half or more of the leaf surface. Control value=((the severity at untreated plants −the severity at treated plants)/the severity at untreated plants)×100

Row | SMILES | Control value (number of lesions at 11th to 20th true leaves) [1] | pest or weed control at 10 µg/mL (Pyricularia oryzae [2]) [%] | pest or weed control at 25 ppm (Pyricularia oryzae [3]) [%] | pest or weed control at 200 ppm (Pyricularia oryzae [3]) [%] | Control value (severity on the flag leaf) (wheat brown rust)
1 | CC(C)Oc1cccc(NC(=O)c2cc(F)nc(F)c2)c1 [Example 1-134] | ≥ 60 | ≥ 80 | ≥ 80 | ≥ 80 | 
2 | COc1cccc(NC(=O)c2cc(F)nc(F)c2)c1 [Example 1-135] |  | ≥ 80 | ≥ 80 | ≥ 80 | ≥ 50
